PubChem BioAssay AID2060889 (Molecular Pharmacology Branch, DTP, NCI, 2025)

System: LG0567-F671-PDC complex spheroids viability
Experiment: Anticancer human tumor LG0567-F671-PDC patient-derived lung adenocarcinoma cell line growth inhibition [RAS]
Conditions: for IC50: curve of first compound; for viability, T/C: stronger effect = lower value
Summary of the method: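 Tumour cells grown as complex spheroids with HUVEC endothelial cells and mesenchymal stem cells, treated with RAS pathway inhibitor combinations. Each agent spans half-log steps from near clinical Cmax, or 10 microM where Cmax is unknown.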

[1] = second compound 0.000949 µM, first compound 0.0316 µM
[2] = second compound 0.000949 µM, first compound 0.1 µM
[3] = second compound 0.000949 µM, first compound 0.316 µM
[4] = second compound 0.000949 µM, first compound 1 µM
[5] = second compound 0.000949 µM, first compound 3.16 µM
[6] = second compound 0.000949 µM, first compound 10 µM
[7] = second compound 0.003 µM, first compound 0.0316 µM
[8] = second compound 0.003 µM, first compound 0.1 µM
[9] = second compound 0.003 µM, first compound 0.316 µM
[10] = second compound 0.003 µM, first compound 1 µM
[11] = second compound 0.003 µM, first compound 3.16 µM
[12] = second compound 0.003 µM, first compound 10 µM
[13] = second compound 0.00949 µM, first compound 0.0316 µM
[14] = second compound 0.00949 µM, first compound 0.1 µM
[15] = second compound 0.00949 µM, first compound 0.316 µM
[16] = second compound 0.00949 µM, first compound 1 µM
[17] = second compound 0.00949 µM, first compound 3.16 µM
[18] = second compound 0.00949 µM, first compound 10 µM
[19] = second compound 0.03 µM, first compound 0.0316 µM
[20] = second compound 0.03 µM, first compound 0.1 µM
[21] = second compound 0.03 µM, first compound 0.316 µM
[22] = second compound 0.03 µM, first compound 1 µM
[23] = second compound 0.03 µM, first compound 3.16 µM
[24] = second compound 0.03 µM, first compound 10 µM
[25] = second compound 0.0949 µM, first compound 0.0316 µM
[26] = second compound 0.0949 µM, first compound 0.1 µM
[27] = second compound 0.0949 µM, first compound 0.316 µM
[28] = second compound 0.0949 µM, first compound 1 µM
[29] = second compound 0.0949 µM, first compound 3.16 µM
[30] = second compound 0.0949 µM, first compound 10 µM
[31] = second compound 0.3 µM, first compound 0.0316 µM
[32] = second compound 0.3 µM, first compound 0.1 µM
[33] = second compound 0.3 µM, first compound 0.316 µM
[34] = second compound 0.3 µM, first compound 1 µM
[35] = second compound 0.3 µM, first compound 3.16 µM
[36] = second compound 0.3 µM, first compound 10 µM
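Further: spheroids exposed to compound for seven days before readout.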
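Wherever IC50 is given: luminescence signal used as a proxy for viable cells.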

In the case of `CC(=O)OC12COC1CC(O)C1(C)C(=O)C(O)C3=C(C)C(OC(=O)C(O)C(NC(=O)OC(C)(C)C)c4ccccc4)CC(O)(C(OC(=O)c4ccccc4)C21)C3(C)C` (stereo unspecified) + CCn1c(-c2cccnc2C(C)OC)c2c3cc(ccc31)N1CCOC(CC(NC(=O)C(C(C)C)N(C)C(=O)C3(F)CCN(C(=O)C#CC(C)(C)N(C)C)CC3)C(=O)N3CCCC(N3)C(=O)OCC(C)(C)C2)C1, the IC50 (second compound 0.000949 µM) is reported as < 31.6 nM, the IC50 (second compound 0.003 µM) is reported as < 31.6 nM and the IC50 (second compound 0.00949 µM) is reported as < 31.6 nM. The IC50 (second compound 0.03 µM) was < 31.6 nM, the IC50 (second compound 0.0949 µM) was < 31.6 nM and the IC50 (second compound 0.3 µM) was < 31.6 nM. The viability, T/C [1] was 12.9%, the viability, T/C [2] was 10.5% and the viability, T/C [3] was 11%. For the same compound, the viability, T/C [4] was 11.9%, the viability, T/C [5] was 11.6% and the viability, T/C [6] was 8.54%. It also gave a viability, T/C [7] of 13.3%, a viability, T/C [8] of 11.5% and a viability, T/C [9] of 11.2%. The viability, T/C [10] was 11.5%, the viability, T/C [11] was 11.5% and the viability, T/C [12] was 9.41%. It also gave a viability, T/C [13] of 11.1%, a viability, T/C [14] of 10.2% and a viability, T/C [15] of 12.1%. It also gave a viability, T/C [16] of 10.1%, a viability, T/C [17] of 11.2% and a viability, T/C [18] of 8.58%. It also gave a viability, T/C [19] of 10.2%, a viability, T/C [20] of 10.9% and a viability, T/C [21] of 10.7%. The viability, T/C [22] was 9.38%, the viability, T/C [23] was 10.1% and the viability, T/C [24] was 7.46%. For the same compound, the viability, T/C [25] was 8.76%, the viability, T/C [26] was 7.61% and the viability, T/C [27] was 8.1%. It also gave a viability, T/C [28] of 9.57%, a viability, T/C [29] of 8.69% and a viability, T/C [30] of 6.64%. It also gave a viability, T/C [31] of 7.24%, a viability, T/C [32] of 6.04% and a viability, T/C [33] of 6.63%. For the same compound, the viability, T/C [34] was 6.97%, the viability, T/C [35] was 7.51% and the viability, T/C [36] was 5.29%.

For `NC1c2ccccc2OC12CCN(c1cnc3c(N4CCCc5ncccc54)n[nH]c3n1)CC2` (stereo unspecified) + CCn1c(-c2cccnc2C(C)OC)c2c3cc(ccc31)N1CCOC(CC(NC(=O)C(C(C)C)N(C)C(=O)C3(F)CCN(C(=O)C#CC(C)(C)N(C)C)CC3)C(=O)N3CCCC(N3)C(=O)OCC(C)(C)C2)C1, the IC50 (second compound 0.000949 µM) was < 31.6 nM, the IC50 (second compound 0.003 µM) was < 31.6 nM and the IC50 (second compound 0.00949 µM) was < 31.6 nM. For the same compound, the IC50 (second compound 0.03 µM) was < 31.6 nM, the IC50 (second compound 0.0949 µM) was < 31.6 nM and the IC50 (second compound 0.3 µM) was < 31.6 nM. It also gave a viability, T/C [1] of 4.75%, a viability, T/C [2] of 4.54% and a viability, T/C [3] of 2.82%. The viability, T/C [4] was 2.6%, the viability, T/C [5] was 3.24% and the viability, T/C [6] was 2.18%. For the same compound, the viability, T/C [7] was 5.7%, the viability, T/C [8] was 4.2% and the viability, T/C [9] was 3.08%. It also gave a viability, T/C [10] of 2.79%, a viability, T/C [11] of 2.89% and a viability, T/C [12] of 3%. The viability, T/C [13] was 6.21%, the viability, T/C [14] was 3.69% and the viability, T/C [15] was 3.15%. It also gave a viability, T/C [16] of 2.2%, a viability, T/C [17] of 1.99% and a viability, T/C [18] of 1.74%. For the same compound, the viability, T/C [19] was 4.82%, the viability, T/C [20] was 4.27% and the viability, T/C [21] was 2.5%. It also gave a viability, T/C [22] of 1.95%, a viability, T/C [23] of 1.88% and a viability, T/C [24] of 2.47%. For the same compound, the viability, T/C [25] was 4.25%, the viability, T/C [26] was 3.02% and the viability, T/C [27] was 2.73%. For the same compound, the viability, T/C [28] was 1.84%, the viability, T/C [29] was 1.66% and the viability, T/C [30] was 1.44%. The viability, T/C [31] was 3.31%, the viability, T/C [32] was 2.55% and the viability, T/C [33] was 1.71%. It also gave a viability, T/C [34] of 1.65%, a viability, T/C [35] of 1.27% and a viability, T/C [36] of 2.62%.

`Nc1ccn(C2OC(CO)C(O)C2(F)F)c(=O)n1` (stereo unspecified) + CCn1c(-c2cccnc2C(C)OC)c2c3cc(ccc31)N1CCOC(CC(NC(=O)C(C(C)C)N(C)C(=O)C3(F)CCN(C(=O)C#CC(C)(C)N(C)C)CC3)C(=O)N3CCCC(N3)C(=O)OCC(C)(C)C2)C1 was tested, and the IC50 (second compound 0.000949 µM) was < 3.16 nM, the IC50 (second compound 0.003 µM) was < 3.16 nM and the IC50 (second compound 0.00949 µM) was < 3.16 nM. The IC50 (second compound 0.03 µM) was < 3.16 nM, the IC50 (second compound 0.0949 µM) was < 3.16 nM and the IC50 (second compound 0.3 µM) was < 3.16 nM. The viability, T/C (second compound 0.000949 µM, first compound 0.00316 µM) was 15.8%, the viability, T/C (second compound 0.000949 µM, first compound 0.01 µM) was 15.7% and the viability, T/C [1] was 14.1%. It also gave a viability, T/C [2] of 14.4%, a viability, T/C [3] of 15.3% and a viability, T/C [4] of 13.8%. It also gave a viability, T/C (second compound 0.003 µM, first compound 0.00316 µM) of 15.6%, a viability, T/C (second compound 0.003 µM, first compound 0.01 µM) of 15.7% and a viability, T/C [7] of 13.5%. It also gave a viability, T/C [8] of 14.8%, a viability, T/C [9] of 15.6% and a viability, T/C [10] of 11.7%. The viability, T/C (second compound 0.00949 µM, first compound 0.00316 µM) was 12.5%, the viability, T/C (second compound 0.00949 µM, first compound 0.01 µM) was 14.3% and the viability, T/C [13] was 13.6%. It also gave a viability, T/C [14] of 13.2%, a viability, T/C [15] of 14.1% and a viability, T/C [16] of 14.1%. It also gave a viability, T/C (second compound 0.03 µM, first compound 0.00316 µM) of 12.3%, a viability, T/C (second compound 0.03 µM, first compound 0.01 µM) of 13.7% and a viability, T/C [19] of 13.8%. It also gave a viability, T/C [20] of 15%, a viability, T/C [21] of 14% and a viability, T/C [22] of 13%. It also gave a viability, T/C (second compound 0.0949 µM, first compound 0.00316 µM) of 11.1%, a viability, T/C (second compound 0.0949 µM, first compound 0.01 µM) of 10.2% and a viability, T/C [25] of 11.4%. It also gave a viability, T/C [26] of 10.1%, a viability, T/C [27] of 12.1% and a viability, T/C [28] of 11.6%. For the same compound, the viability, T/C (second compound 0.3 µM, first compound 0.00316 µM) was 10.6%, the viability, T/C (second compound 0.3 µM, first compound 0.01 µM) was 11.3% and the viability, T/C [31] was 9.37%. It also gave a viability, T/C [32] of 9.44%, a viability, T/C [33] of 9.59% and a viability, T/C [34] of 10%.
